Assay results from patent US20250059198A1, “BRM DEGRADING COMPOUNDS AND ASSOCIATED METHODS OF USE” (Arvinas Operations, Inc., priority 2021, published 2025).

Target: T1, BRM (Homo sapiens, UniProt P51531)
T1 construct: Western Blot Screen of BRM Degradation in SW1573 Cells; endogenous in cells; host or cells: SW1573 cells
Assay: BRM degradation (Dmax and DC50) in SW1573 cells, Western blot screen / In-Cell Western screen
Assay type: cell-based
Conditions: overnight (18-20 hours) treatment; for Dmax: read-out: Dmax (%)** (% degraded)
Method: (§1) To assess BRM degradation (Dmax and DC50) cells were seeded at 8000/well in 96-well black/clear-bottom plates in 180 μL DMEM growth media (containing 1% pen-strep, 1% HEPES and 10% FBS) per well. Plates were incubated overnight to allow adhesion. The next morning cells were treated by adding 20 μL of 10× target compound concentration (1% DMSO) to appropriate wells and returned to incubator for overnight (18-20 hours). The final DMSO concentration was 0.1%.
For lysing, adherent cells were washed once with 100 μL of DPBS. Cells were lysed in 40 μL of 1×RIPA+HALT protease inhibitor on ice for 10 minutes and frozen until use at −80° C. Thawed lysates were cleaned by filtration in 1.2 µm filter plates, or alternatively, were spun clean at 2300 g at 4° C. for 30 minutes.
For blotting, for each Western sample 30 μL of lysate was added to 10 μL of 4× LDS sample buffer, then denatured at 95° C. for 5 minutes in the thermal cycler and placed on ice. Samples were loaded on 4-15% Tris/Glycine gels and run for 25 minutes at 250 constant volts in 1× Tris/Glycine buffer with 4 μL of ladder and 12 μL of each sample loaded for each blot. Protein was transferred from gels to NC with BioRad Turbo dry-transfer unit with the Turbo/midi default program. All blots were rinsed with ddH2O and blocked for 1 hour at room temperature in 5% BSA in TBST (0.1%) on rocker. Blots were exposed to primary antibody in 5% BSA in TBST (0.1%) overnight at 4° C. on rocker (1:1000 for BRM (Cell Signaling Tech. cat #11966) and 1:2000 for alpha-tubulin (Cell Signaling Tech. cat #3873), a control protein. Blot was washed with TBST (0.1%) three times for 5 minutes on rocker at room temperature. Secondary antibody was added, and blots were incubated on a room temperature rocker for 1 hour with 1:18,000 anti-rabbit-HRP and/or anti-mouse-HRP in 5% BSA in TBST (0.1%). Blots were washed three times in TBST (0.1%) for 5 minutes at room temperature on the rocker. Signal was developed with Femto Maximum Sensitivity substrate for 4 minutes and blots read on ChemiDoc™.
as §1, with “DC50),” for “DC50)”, “10×” for “10× target”, “compound” for “compound concentration”
For processing, the plates were removed from incubator, the media was removed, and immediately 200 μL of cold (4° C.) DPBS was added to all wells. DPBS was then removed, and 50 μL of 4% paraformaldehyde (PFA) in DPBS (4° C.) was added to all wells, and the plates were incubated at room temperature for 20 minutes. PFA was then removed, and 200 μL of TBS-T containing 0.5% Triton X-100 was added to all wells, and the plates were incubated at room temperature for 30 minutes. TBS-T containing 0.5% Triton X-100 was then removed, and 50 μL of Li-Cor blocking solution was added, and the plates were incubated at room temperature for a minimum of one hour. The blocking solution was removed, and 50 μL of Li-Cor blocking solution containing primary antibody cocktail was added (1:1000 for BRM (Cell Signaling Tech. cat #11966) and 1:2000 for alpha-tubulin (Sigma cat #T6074), a control protein. Plates were then placed in cold room until the next day.
The next day plates were washed three times with TBS-T, 200 μL per well. Fifty […] of secondary antibody cocktail in LI-COR blocking solution (anti-rabbit_800 nm and anti-mouse_680 nm) was added to all wells (diluted 1:5000). The plates were incubated at room temperature for at least one hour while protected from light. The plates were washed twice with TBS-T, 200 μL per well.
To read each plate TBS-T was removed, and each plate was inverted tapped on a paper towel. […]

T1 sequence (P51531 whole entry): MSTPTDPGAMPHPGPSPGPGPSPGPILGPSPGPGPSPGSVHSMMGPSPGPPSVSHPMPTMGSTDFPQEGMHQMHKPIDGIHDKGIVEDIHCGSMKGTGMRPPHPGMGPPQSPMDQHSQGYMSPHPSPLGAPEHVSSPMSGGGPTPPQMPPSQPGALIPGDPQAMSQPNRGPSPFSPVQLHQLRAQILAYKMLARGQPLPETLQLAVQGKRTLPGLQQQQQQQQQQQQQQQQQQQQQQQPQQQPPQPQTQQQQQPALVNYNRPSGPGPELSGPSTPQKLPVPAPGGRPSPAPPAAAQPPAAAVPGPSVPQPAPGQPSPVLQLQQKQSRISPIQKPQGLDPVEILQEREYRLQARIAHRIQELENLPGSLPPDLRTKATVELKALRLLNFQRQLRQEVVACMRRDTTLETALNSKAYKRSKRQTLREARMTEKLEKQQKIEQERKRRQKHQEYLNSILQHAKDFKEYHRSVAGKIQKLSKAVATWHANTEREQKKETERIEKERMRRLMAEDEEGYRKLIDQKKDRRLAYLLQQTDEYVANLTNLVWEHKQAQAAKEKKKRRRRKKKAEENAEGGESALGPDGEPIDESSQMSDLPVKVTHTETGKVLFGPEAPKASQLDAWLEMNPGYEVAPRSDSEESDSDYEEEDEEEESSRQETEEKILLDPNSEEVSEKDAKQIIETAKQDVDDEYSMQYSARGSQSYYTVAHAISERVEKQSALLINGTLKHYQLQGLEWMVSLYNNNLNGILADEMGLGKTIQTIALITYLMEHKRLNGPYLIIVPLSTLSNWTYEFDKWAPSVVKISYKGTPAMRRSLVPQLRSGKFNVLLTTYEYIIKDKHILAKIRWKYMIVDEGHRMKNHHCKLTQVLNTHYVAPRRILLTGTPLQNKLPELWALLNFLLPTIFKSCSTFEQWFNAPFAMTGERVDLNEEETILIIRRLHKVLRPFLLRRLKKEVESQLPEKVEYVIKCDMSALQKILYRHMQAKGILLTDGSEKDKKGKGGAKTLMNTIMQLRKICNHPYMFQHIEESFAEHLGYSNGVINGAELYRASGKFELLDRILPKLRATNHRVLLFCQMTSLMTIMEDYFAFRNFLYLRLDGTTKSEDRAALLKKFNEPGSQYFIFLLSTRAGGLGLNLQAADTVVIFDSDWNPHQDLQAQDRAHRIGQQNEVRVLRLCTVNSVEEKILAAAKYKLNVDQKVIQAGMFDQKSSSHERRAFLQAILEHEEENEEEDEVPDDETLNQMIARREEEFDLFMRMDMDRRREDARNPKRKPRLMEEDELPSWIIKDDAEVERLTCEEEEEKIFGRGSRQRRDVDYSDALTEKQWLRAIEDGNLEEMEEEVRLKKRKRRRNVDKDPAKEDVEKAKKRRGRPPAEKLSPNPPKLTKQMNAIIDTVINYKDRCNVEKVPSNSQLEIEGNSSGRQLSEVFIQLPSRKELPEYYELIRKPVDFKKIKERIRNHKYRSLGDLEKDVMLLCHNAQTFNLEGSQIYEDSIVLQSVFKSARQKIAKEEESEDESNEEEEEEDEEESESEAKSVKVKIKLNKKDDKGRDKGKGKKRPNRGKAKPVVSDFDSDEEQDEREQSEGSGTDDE

SMILES: CC(NC(=O)[C@@H]1C[C@@H](O)CN1C(=O)[C@@H](c1cc(N2CCC(CN3CCC(O[C@H]4C[C@H](Oc5cc(N6C7CCC6CN(c6cc(-c8ccccc8O)nnc6N)C7)ccn5)C4)CC3)CC2)no1)C(C)C)c1ccc(C#N)c(F)c1 (stereo partly drawn) [Compound 4, (2S,4R)-N-[1-(4-cyano-3-fluorophenyl)ethyl]-4-hydroxy-1-[(2R)-3-methyl-2-{3-[4-({4-[(1r,3r)-3-[(4-{3-[3-amino-6-(2-hydroxyphenyl)pyridazin-4-yl]-3,8-diazabicyclo[3.2.1]octan-8-yl}pyridin-2-yl)oxy]cyclobutoxy]piperidin-1-yl}methyl)piperidin-1-yl]-1,2-oxazol-5-yl}butanoyl]pyrrolidine-2-carboxamide]
- DC50: < 2.5 nM
- Dmax: > 75%

SMILES: Cc1ncsc1-c1ccc([C@H](C)NC(=O)[C@@H]2C[C@@H](O)CN2C(=O)[C@H](c2cc(N3CCC(CN4CCC(O[C@H]5C[C@H](Oc6cc(N7C8CCC7CN(c7cc(-c9ccccc9O)nnc7N)C8)ccn6)C5)CC4)CC3)no2)C(C)C)c(N)c1 [Compound 5, (2S,4R)-N-[(1S)-1-[2-amino-4-(4-methyl-1,3-thiazol-5-yl)phenyl]ethyl]-4-hydroxy-1-[(2S)-3-methyl-2-{3-[4-({4-[(1r,3r)-3-[(4-{3-[3-amino-6-(2-hydroxyphenyl)pyridazin-4-yl]-3,8-diazabicyclo[3.2.1]octan-8-yl}pyridin-2-yl)oxy]cyclobutoxy]piperidin-1-yl}methyl)piperidin-1-yl]-1,2-oxazol-5-yl}butanoyl]pyrrolidine-2-carboxamide]
- DC50: ≥ 30 nM

SMILES: Cc1ncsc1-c1ccc([C@H](C)NC(=O)[C@@H]2C[C@@H](O)CN2C(=O)[C@@H](c2cc(N3CCC(CN4CCC(O[C@H]5C[C@@H](N6CCC([C@H](C)n7cc(-c8cc(-c9ccccc9O)nnc8N)cn7)CC6)C5)CC4)CC3)no2)C(C)C)cc1 [Compound 8, (2S,4R)-4-hydroxy-N-[(1S)-1-[4-(4-methyl-1,3-thiazol-5-yl)phenyl]ethyl]-1-[(2R)-3-methyl-2-{3-[4-({4-[(1s,3s)-3-{4-[(1S)-1-{4-[3-amino-6-(2-hydroxyphenyl)pyridazin-4-yl]-1H-pyrazol-1-yl}ethyl]piperidin-1-yl}cyclobutoxy]piperidin-1-yl}methyl)piperidin-1-yl]-1,2-oxazol-5-yl}butanoyl]pyrrolidine-2-carboxamide]
- DC50: < 2.5 nM
- Dmax: > 75%

SMILES: Cc1ncsc1-c1ccc([C@H](C)NC(=O)[C@@H]2C[C@@H](O)CN2C(=O)[C@@H](c2cc(N3CCC(CN4CCC(O[C@H]5C[C@H](N6CCC([C@H](C)n7cc(-c8cc(-c9ccccc9O)nnc8N)cn7)CC6)C5)CC4)CC3)no2)C(C)C)cc1 [Compound 9, (2S,4R)-4-hydroxy-N-[(1S)-1-[4-(4-methyl-1,3-thiazol-5-yl)phenyl]ethyl]-1-[(2R)-3-methyl-2-{3-[4-({4-[(1r,3r)-3-{4-[(1S)-1-{4-[3-amino-6-(2-hydroxyphenyl)pyridazin-4-yl]-1H-pyrazol-1-yl}ethyl]piperidin-1-yl}cyclobutoxy]piperidin-1-yl}methyl)piperidin-1-yl]-,2-oxazol-5-yl}butanoyl]pyrrolidine-2-carboxamide]
- DC50: < 2.5 nM
- Dmax: > 75%

SMILES: Cc1ncsc1-c1ccc([C@H](C)NC(=O)[C@@H]2C[C@@H](O)CN2C(=O)[C@@H](c2cc(N3CCC(CN4CCC(N[C@H]5C[C@H](Oc6cc(N7C8CCC7CN(c7cc(-c9ccccc9O)nnc7N)C8)ccn6)C5)CC4)CC3)no2)C(C)C)cc1 [Compound 10, (2S,4R)-4-hydroxy-N-[(1S)-1-[4-(4-methyl-1,3-thiazol-5-yl)phenyl]ethyl]-1-[(2R)-3-methyl-2-(3-{4-[(4-{[(1rs,3rs)-3-[(4-{3-[3-amino-6-(2-hydroxyphenyl)pyridazin-4-yl]-3,8-diazabicyclo[3.2.1]octan-8-yl}pyridin-2-yl)oxy]cyclobutyl]amino}piperidin-1-yl)methyl]piperidin-1-yl}-1,2-oxazol-5-yl)butanoyl]pyrrolidine-2-carboxamide]
- DC50: < 2.5 nM
- Dmax: > 75%

SMILES: Cc1ncsc1-c1ccc([C@H](C)NC(=O)[C@@H]2C[C@@H](O)CN2C(=O)[C@@H](c2cc(N3CCC(CN4CCC(O[C@H]5C[C@H](N6CCC(O)(CN7C8CCC7CN(c7cc(-c9ccccc9O)nnc7N)C8)CC6)C5)CC4)CC3)no2)C(C)C)cc1 [Compound 11, (2S,4R)-4-hydroxy-N-[(1S)-1-[4-(4-methyl-1,3-thiazol-5-yl)phenyl]ethyl]-1-[(2R)-3-methyl-2-{3-[4-({4-[(1r,3r)-3-[4-({3-[3-amino-6-(2-hydroxyphenyl)pyridazin-4-yl]-3,8-diazabicyclo[3.2.1]octan-8-yl}methyl)-4-hydroxypiperidin-1-yl]cyclobutoxy]piperidin-1-yl}methyl)piperidin-1-yl]-1,2-oxazol-5-yl}butanoyl]pyrrolidine-2-carboxamide]
- DC50: < 2.5 nM
- Dmax: > 75%

SMILES: Cc1ncsc1-c1ccc([C@H](C)NC(=O)[C@@H]2C[C@@H](O)CN2C(=O)[C@H](c2cc(N3CCC(n4cnc(CN5CCC(O[C@H]6C[C@H](Oc7cc(N8C9CCC8CN(c8cc(-c%10ccccc%10O)nnc8N)C9)ccn7)C6)CC5)c4)CC3)no2)C(C)C)cc1 [Compound 12, (2S,4R)-4-hydroxy-N-[(1S)-1-[4-(4-methyl-1,3-thiazol-5-yl)phenyl]ethyl]-1-[(2S)-3-methyl-2-(3-{4-[4-({4-[(1r,3r)-3-[(4-{3-[3-amino-6-(2-hydroxyphenyl)pyridazin-4-yl]-3,8-diazabicyclo[3.2.1]octan-8-yl}pyridin-2-yl)oxy]cyclobutoxy]piperidin-1-yl}methyl)-1H-imidazol-1-yl]piperidin-1-yl}-1,2-oxazol-5-yl)butanoyl]pyrrolidine-2-carboxamide]
- DC50: ≥ 30 nM

SMILES: Cc1ncsc1-c1ccc([C@H](C)NC(=O)[C@@H]2C[C@@H](O)CN2C(=O)[C@H](c2cc(N3CCC(C4(N5CCC(O[C@H]6C[C@H](Oc7cc(N8C9CCC8CN(c8cc(-c%10ccccc%10O)nnc8N)C9)ccn7)C6)CC5)CC4)CC3)no2)C(C)C)cc1 [Compound 13, (2S,4R)-4-hydroxy-N-[(3S)-3-[4-(4-methyl-3,3-thiazol-5-yl)phenyl]ethyl]-3-[(2S)-3-methyl-2-{3-[4-(3-{4-[(1r,3r)-3-[(4-{3-[3-amino-6-(2-hydroxyphenyl)pyridazin-4-yl]-3,8-diazabicyclo[3.2.3]octan-8-yl}pyridin-2-yl)oxy]cyclobutoxy]piperidin-1-yl}cyclopropyl)piperidin-1-yl]-1,2-oxazol-5-yl}butanoyl]pyrrolidine-2-carboxamide]
- DC50: ≥ 30 nM

SMILES: CC(C)[C@@H](C(=O)N1C[C@H](O)C[C@H]1C(=O)N[C@@H](C)c1ccc(C#N)cc1)c1cc(N2CCC(CN3CCC(O[C@H]4C[C@H](Oc5cc(N6C7CCC6CN(c6cc(-c8ccccc8O)nnc6N)CC7)ccn5)C4)CC3)CC2)no1 (stereo partly drawn) [Compound 14, (2S,4R)-N-[(1S)-1-(4-cyanophenyl)ethyl]-4-hydroxy-1-[(2R)-3-methyl-2-{3-[4-({4-[(1r,3r)-3-[(4-{3-[3-amino-6-(2-hydroxyphenyl)pyridazin-4-yl]-3,9-diazabicyclo[4.2.1]nonan-9-yl}pyridin-2-yl)oxy]cyclobutoxy]piperidin-1-yl}methyl)piperidin-1-yl]-1,2-oxazol-5-yl}butanoyl]pyrrolidine-2-carboxamide]
- DC50: < 2.5 nM
- Dmax: > 75%
